Test system: Haemonchus contortus und Trichostrongylus colubriformis
Assay: B-3 test on sheep infected with nematodes (worm egg count in faeces)
Format: in vivo, Schafe
From the text: Milbemycine mit einer 13β-Alkylthiogruppe sind als Insektizide und Parasitizide aus der Europäischen Offenlegungsschrift EP-0,184,173 bzw. dem korrespondierenden Britischen Patent GB-2,167,751B bekannt. Die biologische Aktivität der 13β-Ethylthiomilbemycine kann man jedoch überraschenderweise durch Einführung der erfindungsgemässen, terminalen [drawing 26] (worin R₃ und X die unter Formel I angegebenen Bedeutungen haben) in die 2-Position der 13β-Ethylgruppe signifikant erhöhen. Vergleicht man z.B. die Verbindung Nr. 1.14 aus obigen Publikationen [drawing 27] mit der erfindungsgemässen Substanz Nr. 1.13 (vgl. Tab. 1) [drawing 28] gemäss dem weiter unten beschriebenen biologischen Beispiel B-3 an Schafen, die mit den Nematoden Haemonchus contortus und Trichostrongylus colubriformis infiziert wurden, so findet man bei einmaliger intraruminaler Applikation von 0,1 mg Aktivsubstanz/kg Körpergewicht folgende Resultate (angegeben in Reduktion der Wurmeier im Kot verglichen mit der Zahl der Eier bei infizierten, aber unbehandelten Schafen):
Der Wirkstoff wird als Suspension formuliert mit einer Magensonde oder durch Injektion in den Pansen eines Schafes gegeben, das mit Haemonchus contortus und Trychostrongylus colubriformis künstlich infiziert worden ist. Pro Dosis werden 1 bis 3 Tiere verwendet. […]

CC[C@H]1O[C@]2(CC[C@@H]1C)C[C@@H]1C[C@@H](C/C=C(\C)[C@H](SCCc3ccc(NC(=O)OC)cc3)[C@@H](C)/C=C/C=C3\CO[C@@H]4[C@H](O)C(C)=C[C@@H](C(=O)O1)[C@]34O)O2 [1.13, 13β-(2-[4-(Methoxycarbonylamino)phenyl]ethylthio)milbemycin A4]
Reduktion der Wurmeier im Kot verglichen mit der Zahl der Eier bei infizierten, aber unbehandelten Schafen (Versuch 1, single intraruminal application of 0,1 mg Aktivsubstanz/kg Körpergewicht): 99% | Reduktion der Wurmeier im Kot verglichen mit der Zahl der Eier bei infizierten, aber unbehandelten Schafen (Versuch 2 (Wiederholung von 1), single intraruminal application of 0,1 mg Aktivsubstanz/kg Körpergewicht): 93%

Reference: patent EP0430884B1, “Insecticides and antiparasitic agents” (CIBA-GEIGY AG, priority 1989, dated 1991)
